Holding throughout (format): cell-based
Assay [1] deals with Rhodococcus erythropolis PR-4. The experiment in a line: Treatment of various hydrocarbons: growth and localization of PR-4 in organic solvent/IB medium bilayer culture. To be noted: hydrocarbon 5% (v/v) in IB medium, 28° C., 110 rpm, third day of culturing. The protocol: (§1) IB liquid medium was prepared as shown below.
(§2) As n-alkanes, n-hexane (C6), n-octane (C8), n-nonane (C9), n-decane (C10), n-undecane (C11), n-dodecane (C12), n-tridecane (C13), n-tetradecane (C14), n-pentadecane (C15), n-hexadecane (C16), n-heptadecane (C17), and n-octadecane (C18) were used.
(§3) As test strains, Rhodococcus erythropolis PR-4 and Rhodococcus rhodochrous S-2 were used.
(§4) On the third day after the start of culturing, the growth status of the test bacteria and sites where the test bacteria had localized were observed. When the test bacteria were present in the organic solvent, they were labeled “inside” and when they were present on the surface of the organic solvent, they were labeled “surface.” The results are shown in Table 1.

For assay [2], the system named is Rhodococcus rhodochrous S-2. Briefly: Treatment of various hydrocarbons: growth and localization of S-2 in organic solvent/IB medium bilayer culture. As to conditions: hydrocarbon 5% (v/v) in IB medium, 28° C., 110 rpm, third day of culturing. The protocol:
as §1, §2, §3, §4

In assay [3] the test system is Rhodococcus erythropolis PR-4. The experiment in a line: Investigation of Rhodococcus erythropolis PR-4 adaptation (two-stage culture with different hydrocarbons). On the set-up: key: ±: growth is shown at interface of hydrocarbon and IB liquid culture medium; +: growth is shown in hydrocarbon. To be noted: pristane (C19) into dodecane (C12): PR-4 first cultured 3 days with pristane, then with dodecane 5% (v/v); third day.

Molecules are shown by their SMILES.

`CCCCCCCCCC` [n-decane]: in assay [1], the PR-4 growth result is recorded as “±”. Besides, the S-2 growth entry in assay [2] is given as “−”.

Consider `CCCCCCCCCCCC` [n-dodecane], for which the PR-4 growth entry in assay [1] was “±”. Besides, in assay [2], the S-2 growth entry is “−”. The growth result in assay [3] was “+”.

As to `CCCCCC` [n-hexane], in assay [1], the PR-4 growth result is “−”. For the same compound, in assay [2], the S-2 growth entry is listed as “−”.

On to `CCCCCCCCCCCCCCCC` [n-hexadecane], for which, in assay [1], the PR-4 growth result was “+”. Besides, in assay [2], the S-2 growth entry was “±”.

Regarding `CCCCCCCC` [n-octane], the PR-4 growth entry in assay [1] is listed as “−”. In addition, the S-2 growth result in assay [2] is recorded as “−”.

With `CCCCCCCCCCCCCC` [n-tetradecane], in assay [1], the PR-4 growth entry was “+”. In addition, the S-2 growth entry in assay [2] is reported as “±”.

Turning to `CC(C)CCCC(C)CCCC(C)CCCCC(C)CCCC(C)CCCC(C)C` (stereo not drawn) [n-squalane, squalane], the PR-4 growth result in assay [1] was “+”. Further, in assay [2], the S-2 growth entry is listed as “±”.

For the origin of these results see patent publication US20060263870A1, “Hydrocarbon processing method and hydrocarbon processing system” (NIHON UNIVERSITY, priority 2005, published 2006).
